# Calls of active or inactive are those of the source. The calls are words filed in the database; no cut-off is given here.
# Key:
# Homo sapiens [1] = species on record: Homo sapiens; assay: Selectivity index, ratio of IC50 for HDAC7 (unknown origin) to IC50 for HDAC 6 (unknown origin)
# Homo sapiens [2] = species on record: Homo sapiens; assay: Selectivity index, ratio of IC50 for HDAC6 (unknown origin) to IC50 for HDAC 3 (unknown origin)
# A549 [3] = assay: Inhibition of HDAC1/HDAC3/HDAC6 in human A549 cells assessed as increase in H3 acK9 level by Western blot analysis; type: cell-based
# A549 [4] = assay: Induction of apoptosis in human A549 cells assessed as nuclear condensation at 0.1 to 1 uM after 24 hrs by fluorescence microscopic analysis; type: functional, cell-based; conditions: dose 0.1-1 µM
# Histone deacetylase 4 = Histone deacetylase 4 (Homo sapiens, UniProt P56524); assay: Inhibition of HDAC4 (unknown origin) by colorimetric method
# Histone deacetylase 9 = Histone deacetylase 9 (Homo sapiens, UniProt Q9UKV0); assay: Inhibition of HDAC9 (unknown origin) by colorimetric method
# HOP-62 = assay: Cytotoxicity against human HOP-62 cells assessed as cell viability after 48 hrs by MTT assay; type: functional, cell-based; conditions: HOP-62, 48 h
# A549 [5] = assay: Cytotoxicity against human A549 cells assessed as cell viability after 48 hrs by MTT assay; type: functional, cell-based; conditions: A549, 48 h
# Homo sapiens [6] = species on record: Homo sapiens; assay: Selectivity index, ratio of IC50 for HDAC 2 (unknown origin) to IC50 for HDAC 1 (unknown origin)
# A549 [7] = assay: Induction of cell cycle arrest in human A549 cells assessed as accumulation at G0/G1 phase at 0.5 times IC50 after 48 hrs by flow cytometry; type: functional, cell-based
# Histone deacetylase 7 = molecular target: T1, Histone deacetylase 7 (Homo sapiens, UniProt Q8WUI4); assay: Inhibition of HDAC7 (unknown origin) by colorimetric method
# T1 sequence (Q8WUI4 whole entry): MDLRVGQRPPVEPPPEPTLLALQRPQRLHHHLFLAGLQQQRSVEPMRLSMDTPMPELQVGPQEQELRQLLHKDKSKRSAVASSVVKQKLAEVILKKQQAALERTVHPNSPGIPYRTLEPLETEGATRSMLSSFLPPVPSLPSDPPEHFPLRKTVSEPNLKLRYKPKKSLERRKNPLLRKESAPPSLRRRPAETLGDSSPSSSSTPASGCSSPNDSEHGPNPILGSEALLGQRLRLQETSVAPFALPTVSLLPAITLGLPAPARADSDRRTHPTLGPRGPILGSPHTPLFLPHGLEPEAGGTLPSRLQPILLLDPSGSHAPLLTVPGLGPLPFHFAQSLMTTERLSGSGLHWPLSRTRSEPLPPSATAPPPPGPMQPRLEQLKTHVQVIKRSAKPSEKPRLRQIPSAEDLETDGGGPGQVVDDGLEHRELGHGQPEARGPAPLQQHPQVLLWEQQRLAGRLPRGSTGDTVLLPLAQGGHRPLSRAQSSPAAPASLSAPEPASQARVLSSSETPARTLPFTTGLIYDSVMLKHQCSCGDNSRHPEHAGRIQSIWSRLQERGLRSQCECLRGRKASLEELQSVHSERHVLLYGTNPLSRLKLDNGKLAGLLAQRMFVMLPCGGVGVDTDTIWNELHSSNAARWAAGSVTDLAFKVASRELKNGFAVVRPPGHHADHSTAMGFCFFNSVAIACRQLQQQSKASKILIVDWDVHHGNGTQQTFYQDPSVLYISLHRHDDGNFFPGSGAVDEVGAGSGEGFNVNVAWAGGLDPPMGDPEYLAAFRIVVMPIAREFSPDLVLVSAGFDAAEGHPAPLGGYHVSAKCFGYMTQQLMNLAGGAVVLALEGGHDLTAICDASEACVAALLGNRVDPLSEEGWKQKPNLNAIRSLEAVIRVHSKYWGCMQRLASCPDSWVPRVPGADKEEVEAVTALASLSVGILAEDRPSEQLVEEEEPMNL
# A549 [8] = assay: Downregulation of HDAC1 expression in human A549 cells at 0.1 to 1 uM after 24 hrs by Western blot analysis; type: functional, cell-based; conditions: dose 0.1-1 µM
# A549 [9] = assay: Inhibition of colony formation in human A549 cells measured after 24 hrs; type: functional, cell-based; conditions: dose 0.1-1 µM, DDE = dose-dependent effect
# Histone deacetylase 1 = Histone deacetylase 1 (Homo sapiens, UniProt Q13547); assay: Inhibition of HDAC1 (unknown origin) by colorimetric method
# Homo sapiens [10] = species on record: Homo sapiens; assay: Selectivity index, ratio of IC50 for HDAC5 (unknown origin) to IC50 for HDAC 1 (unknown origin)
# Homo sapiens [11] = species on record: Homo sapiens; assay: Selectivity index, ratio of IC50 for HDAC5 (unknown origin) to IC50 for HDAC 6 (unknown origin)
# A549 [12] = assay: Induction of cell cycle arrest in human A549 cells assessed as accumulation at SubG1 phase at IC50 after 48 hrs by flow cytometry; type: functional, cell-based
# Histone deacetylase 8 = molecular target: T2, Histone deacetylase 8 (Homo sapiens, UniProt Q9BY41); assay: Inhibition of HDAC8 (unknown origin) by colorimetric method
# T2 sequence (Q9BY41 whole entry): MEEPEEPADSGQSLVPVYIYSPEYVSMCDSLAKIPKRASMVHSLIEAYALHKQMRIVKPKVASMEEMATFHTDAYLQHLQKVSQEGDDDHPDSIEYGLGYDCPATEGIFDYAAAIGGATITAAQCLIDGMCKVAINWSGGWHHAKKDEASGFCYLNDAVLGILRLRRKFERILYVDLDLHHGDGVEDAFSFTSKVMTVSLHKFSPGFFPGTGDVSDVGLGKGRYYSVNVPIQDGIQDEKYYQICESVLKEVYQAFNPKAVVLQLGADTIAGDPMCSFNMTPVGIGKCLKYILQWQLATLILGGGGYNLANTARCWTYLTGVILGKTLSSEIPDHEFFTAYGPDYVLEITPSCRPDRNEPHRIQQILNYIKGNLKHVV
# Homo sapiens [13] = species on record: Homo sapiens; assay: Selectivity index, ratio of IC50 for HDAC9 (unknown origin) to IC50 for HDAC 1 (unknown origin)
# Histone deacetylase 3 = Histone deacetylase 3 (Homo sapiens, UniProt O15379); assay: Inhibition of HDAC3 (unknown origin) by colorimetric method
# A549 [14] = assay: Induction of apoptosis in human A549 cells assessed as apoptotic bodies formation after 24 hrs by fluorescence microscopic analysis; type: functional, cell-based; conditions: dose 0.1-1 µM, DDE = dose-dependent effect
# Homo sapiens [15] = species on record: Homo sapiens; assay: Selectivity index, ratio of IC50 for HDAC6 (unknown origin) to IC50 for HDAC 1 (unknown origin)
# Histone deacetylase 2 = Histone deacetylase 2 (Homo sapiens, UniProt Q92769); assay: Inhibition of HDAC2 (unknown origin) by colorimetric method
# Homo sapiens [16] = species on record: Homo sapiens; assay: Selectivity index, ratio of IC50 for HDAC 2 (unknown origin) to IC50 for HDAC 6 (unknown origin)
# Homo sapiens [17] = species on record: Homo sapiens; assay: Selectivity index, ratio of IC50 for HDAC 1 (unknown origin) to IC50 for HDAC 6 (unknown origin)
# A549 [18] = assay: Induction of apoptosis in human A549 cells assessed as cell shrinkage at 0.1 to 1 uM after 24 hrs by fluorescence microscopic analysis; type: functional, cell-based; conditions: dose 0.1-1 µM
# Homo sapiens [19] = species on record: Homo sapiens; assay: Selectivity index, ratio of IC50 for HDAC4 (unknown origin) to IC50 for HDAC 6 (unknown origin)
# Homo sapiens [20] = species on record: Homo sapiens; assay: Selectivity index, ratio of IC50 for HDAC 8 (unknown origin) to IC50 for HDAC 3 (unknown origin)
# Histone deacetylase 9, sequence (Q9UKV0 whole entry): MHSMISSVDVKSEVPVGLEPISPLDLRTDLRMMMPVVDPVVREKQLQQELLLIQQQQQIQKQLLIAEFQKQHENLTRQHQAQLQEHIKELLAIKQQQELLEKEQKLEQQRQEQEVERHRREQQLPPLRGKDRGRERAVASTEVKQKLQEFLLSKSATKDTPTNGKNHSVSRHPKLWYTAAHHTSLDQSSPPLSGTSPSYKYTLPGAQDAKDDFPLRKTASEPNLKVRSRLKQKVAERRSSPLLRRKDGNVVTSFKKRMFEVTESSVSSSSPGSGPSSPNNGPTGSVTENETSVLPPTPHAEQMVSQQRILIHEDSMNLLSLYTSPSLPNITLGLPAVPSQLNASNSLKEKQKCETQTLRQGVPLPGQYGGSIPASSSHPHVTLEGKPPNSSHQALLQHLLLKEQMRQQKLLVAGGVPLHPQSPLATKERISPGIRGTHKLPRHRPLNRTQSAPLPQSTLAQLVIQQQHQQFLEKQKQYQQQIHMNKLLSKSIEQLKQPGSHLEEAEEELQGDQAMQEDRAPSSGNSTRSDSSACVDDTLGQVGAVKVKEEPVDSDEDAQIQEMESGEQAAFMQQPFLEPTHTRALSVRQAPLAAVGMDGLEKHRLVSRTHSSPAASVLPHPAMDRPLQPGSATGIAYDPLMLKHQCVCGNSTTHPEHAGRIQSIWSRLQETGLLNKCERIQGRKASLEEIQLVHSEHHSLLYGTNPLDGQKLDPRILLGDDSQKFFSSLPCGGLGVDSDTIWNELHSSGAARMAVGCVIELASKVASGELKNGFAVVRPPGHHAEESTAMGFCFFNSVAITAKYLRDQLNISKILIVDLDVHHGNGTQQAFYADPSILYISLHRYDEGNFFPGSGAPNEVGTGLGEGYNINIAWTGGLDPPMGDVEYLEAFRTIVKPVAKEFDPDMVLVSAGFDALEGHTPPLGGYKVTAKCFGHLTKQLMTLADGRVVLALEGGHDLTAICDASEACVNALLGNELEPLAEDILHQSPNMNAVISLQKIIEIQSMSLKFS
# Histone deacetylase 4, sequence (P56524 whole entry): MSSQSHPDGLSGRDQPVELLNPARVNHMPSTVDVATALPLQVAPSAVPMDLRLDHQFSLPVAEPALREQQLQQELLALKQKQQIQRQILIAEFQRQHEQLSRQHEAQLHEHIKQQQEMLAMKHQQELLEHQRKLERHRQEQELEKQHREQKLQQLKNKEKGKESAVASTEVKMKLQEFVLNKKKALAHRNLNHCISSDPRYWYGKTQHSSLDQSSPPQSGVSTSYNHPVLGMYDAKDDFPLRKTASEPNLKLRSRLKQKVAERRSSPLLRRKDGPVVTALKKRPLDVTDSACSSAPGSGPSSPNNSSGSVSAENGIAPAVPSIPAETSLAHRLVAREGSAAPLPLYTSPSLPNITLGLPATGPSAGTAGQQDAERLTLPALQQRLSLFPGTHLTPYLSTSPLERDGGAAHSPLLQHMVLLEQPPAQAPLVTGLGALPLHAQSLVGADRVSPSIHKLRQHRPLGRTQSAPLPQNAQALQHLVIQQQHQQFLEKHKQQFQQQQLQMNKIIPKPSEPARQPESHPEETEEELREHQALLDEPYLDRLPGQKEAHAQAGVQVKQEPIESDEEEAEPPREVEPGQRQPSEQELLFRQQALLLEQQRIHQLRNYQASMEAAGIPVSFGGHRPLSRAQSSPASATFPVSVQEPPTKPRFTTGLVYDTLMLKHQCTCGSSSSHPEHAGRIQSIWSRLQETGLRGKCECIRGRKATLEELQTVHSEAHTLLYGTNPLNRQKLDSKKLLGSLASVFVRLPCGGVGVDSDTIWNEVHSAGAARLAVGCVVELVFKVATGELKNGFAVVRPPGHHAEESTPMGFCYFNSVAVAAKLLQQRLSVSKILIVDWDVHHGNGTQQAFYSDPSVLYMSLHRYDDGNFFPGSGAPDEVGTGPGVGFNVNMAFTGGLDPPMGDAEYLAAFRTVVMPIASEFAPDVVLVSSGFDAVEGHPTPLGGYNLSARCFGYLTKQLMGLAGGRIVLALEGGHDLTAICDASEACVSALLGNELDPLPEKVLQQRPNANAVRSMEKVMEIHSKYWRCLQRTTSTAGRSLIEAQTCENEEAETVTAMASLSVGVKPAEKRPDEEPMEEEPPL
# Histone deacetylase 2, sequence (Q92769 whole entry): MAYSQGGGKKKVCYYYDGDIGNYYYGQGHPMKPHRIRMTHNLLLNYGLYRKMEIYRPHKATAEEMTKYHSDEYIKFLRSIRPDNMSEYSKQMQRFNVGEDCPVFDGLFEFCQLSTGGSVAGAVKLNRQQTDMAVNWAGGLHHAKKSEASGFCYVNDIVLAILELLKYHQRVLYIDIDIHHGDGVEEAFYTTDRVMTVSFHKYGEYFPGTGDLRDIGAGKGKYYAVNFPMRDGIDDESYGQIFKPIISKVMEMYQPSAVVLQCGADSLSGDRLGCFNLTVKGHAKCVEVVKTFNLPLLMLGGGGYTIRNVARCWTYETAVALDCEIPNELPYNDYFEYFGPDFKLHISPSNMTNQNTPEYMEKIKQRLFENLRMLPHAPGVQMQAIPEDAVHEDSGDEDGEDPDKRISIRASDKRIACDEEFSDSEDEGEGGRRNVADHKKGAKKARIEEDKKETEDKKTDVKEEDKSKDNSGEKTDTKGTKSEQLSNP
# Histone deacetylase 1, sequence (Q13547 whole entry): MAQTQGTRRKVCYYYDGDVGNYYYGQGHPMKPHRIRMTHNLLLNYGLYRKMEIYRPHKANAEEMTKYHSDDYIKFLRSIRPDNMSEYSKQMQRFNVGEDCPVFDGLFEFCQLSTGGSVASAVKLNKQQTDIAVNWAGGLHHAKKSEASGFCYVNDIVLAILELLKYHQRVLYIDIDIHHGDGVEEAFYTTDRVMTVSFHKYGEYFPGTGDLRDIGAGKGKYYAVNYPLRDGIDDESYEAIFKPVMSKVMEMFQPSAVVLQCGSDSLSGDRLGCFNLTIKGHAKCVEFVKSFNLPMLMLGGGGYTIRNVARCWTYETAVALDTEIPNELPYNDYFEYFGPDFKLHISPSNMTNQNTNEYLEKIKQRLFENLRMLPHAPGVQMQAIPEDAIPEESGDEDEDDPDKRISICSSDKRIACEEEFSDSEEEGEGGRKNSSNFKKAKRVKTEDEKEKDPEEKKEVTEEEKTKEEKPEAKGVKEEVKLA
# Histone deacetylase 3, sequence (O15379 whole entry): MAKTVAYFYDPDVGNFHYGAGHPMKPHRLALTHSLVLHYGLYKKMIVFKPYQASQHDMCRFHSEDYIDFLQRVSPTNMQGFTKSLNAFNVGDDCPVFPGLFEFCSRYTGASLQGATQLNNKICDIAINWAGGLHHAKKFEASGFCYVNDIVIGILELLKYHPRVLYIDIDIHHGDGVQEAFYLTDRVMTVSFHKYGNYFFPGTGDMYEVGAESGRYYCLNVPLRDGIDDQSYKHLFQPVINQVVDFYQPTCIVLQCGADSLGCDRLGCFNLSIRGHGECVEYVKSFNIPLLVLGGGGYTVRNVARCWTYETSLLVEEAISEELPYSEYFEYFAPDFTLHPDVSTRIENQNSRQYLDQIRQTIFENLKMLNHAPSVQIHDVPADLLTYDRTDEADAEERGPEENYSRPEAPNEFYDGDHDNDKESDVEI
structure (smiles),measurement,setting,value
O=C(/C=C/c1ccc(CNc2ccc3nc4n(c(=O)c3c2)CCCCC4)cc1)NO,Ratio IC50,Homo sapiens [1],316
same,Ratio IC50,Homo sapiens [2],0.188
same,inhibition,A549 [3],Active
same,Activity,A549 [4],Active
same,IC50,Histone deacetylase 4,1630 nM
same,IC50,Histone deacetylase 9,4320 nM
same,IC50,HOP-62,900 nM
same,IC50,A549 [5],855 nM
same,Ratio IC50,Homo sapiens [6],25.2
same,Activity,A549 [7],Active
same,IC50,Histone deacetylase 7,4080 nM
same,inhibition,A549 [8],Active
same,inhibition,A549 [9],Dde
same,IC50,Histone deacetylase 1,49.9 nM
same,Ratio IC50,Homo sapiens [10],12.4
same,Ratio IC50,Homo sapiens [11],47.8
same,Activity,A549 [12],Active
same,IC50,Histone deacetylase 8,178 nM
same,Ratio IC50,Homo sapiens [13],86.6
same,IC50,Histone deacetylase 3,68.5 nM
same,Activity,A549 [14],Dde
same,Ratio IC50,Homo sapiens [15],0.25
same,IC50,Histone deacetylase 2,1260 nM
same,Ratio IC50,Homo sapiens [16],97.7
same,Ratio IC50,Homo sapiens [17],3.86
same,Activity,A549 [18],Active
same,Ratio IC50,Homo sapiens [19],126
same,Ratio IC50,Homo sapiens [20],2
